Measurements taken from patent US7074412B2, “Pharmaceutical composition” (The University of Zurich, priority 2003, dated 2006).

What was measured:
MC3T3-E1 cells [1] = test: alkaline phosphatase activity as marker of maturation of preosteoblastic cell line; format: cell-based
Protocol: (§1) MC3T3-E1 cells were grown in an alpha-modified Minimum Essential Medium (Life Technologies, Inc., Grand Island, N.Y.) containing 10% fetal calf serum (Life Technologies, Inc.), 50 μg/ml gentamycin, and 50 μg/ml ascorbic acid. C3H10T1/2 cells were grown in basal medium Eagle, and 50 μg/ml gentamycin. To examine the action of NMP on both cell lines, 1×10^5 cells per well were plated in 6-well plates and NMP subsequently added. Medium exchange was performed after 3 days and alkaline phosphatase (ALP) was determined according to Lowry, O. et al. [J. Biol. Chem. 207 (1954) 19–37]: p-nitrophenol liberated was converted to p-nitrophenylate by adding 400 μl of 1 M NaOH, which was quantitated by measuring the absorbance at 410 nm (epsilon=17500/molxcm). Alkaline phosphatase activity was normalized to total protein and expressed as nmol nitrophenylate generated per min per mg protein.
First, to verify the osteoinductive activity of NMP an embryonic, murine, mesenchymal stem cell line C3H10T1/2 and a preosteoblastic cell line MC3T3-E1 were used and cultured as described above. C3H10T1/2 cells can differentiate into cartilage, bone or adipose cells, whereas MC3T3-E1 produces and releases autologous BMP. Alkaline phosphatase activity was used as a marker for the differentiation into the osteoblastic lineage. […]

C3H10T1/2 cells = test: alkaline phosphatase activity in mesenchymal stem cell line; format: cell-based, murine; conditions: C3H10T1/2 cells treated with up to 5 mM NMP; data not shown
Protocol: as §1
First, to verify the osteoinductive activity of NMP an embryonic, murine, mesenchymal stem cell line C3H10T1/2 and a preosteoblastic cell line MC3T3-E1 were used and cultured as described above. C3H10T1/2 cells can differentiate into cartilage, bone or adipose cells, whereas MC3T3-E1 produces and releases autologous BMP. Alkaline phosphatase activity was used as a marker for the differentiation into the osteoblastic lineage.

MC3T3-E1 cells [2] = test: mineralization by Alizarin red-S staining; format: cell-based; conditions: 4 weeks, 5 Mm glycerol phosphate and 1 μg/ml rhBMP-2, 2.5 Mm NMP vs no NMP
Protocol: Alizarin red-S staining was performed after 4 weeks according to Bodine, P. V. N., et al. [J Bone Mineral Res 11 (1996) 806–819].

rhBMP-2 dimers = biological target: T1, rhBMP-2 dimers (Homo sapiens, UniProt P12643); test: solubilization of rhBMP-2 pellets in phosphate buffered saline with pyrrolidones; conditions: 2 h in phosphate buffered saline with increasing amounts of pyrrolidone
T1 sequence (P12643 283-396): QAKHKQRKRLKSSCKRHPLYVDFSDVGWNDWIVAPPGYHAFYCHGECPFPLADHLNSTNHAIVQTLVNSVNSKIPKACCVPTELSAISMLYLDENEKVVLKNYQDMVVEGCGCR
Protocol: Two to twenty micrograms of the rhBMP protein was lyophilized in a speed-vac to form a solid rhBMP disc. […] After 2 h the protein in the remaining disc was sedimented (22,000×g, 30 min) and the protein content of 20 μl from the supernatant determined by a slot-blot method (Weber, F. E., et al., 2002, supra).

SMILES	maturation determined by alkaline phosphatase activity, concentration dependence (MC3T3-E1 cells [1]; after 6 days, 0 to 5 Mm of NMP)	increase of alkaline phosphatase activity (factor) (MC3T3-E1 cells [1]; low doses of NMP, MC3T3-E1)	alkaline phosphatase activity (C3H10T1/2 cells)	mineralisation (alizarin-S-staining) (MC3T3-E1 cells [2])	potential to solubilize rhBMP-2, grading in declining order (rhBMP-2 dimers)
CN1CCCC1=O [NMP, 1-methyl-2-pyrrolidone]	increases in a concentration dependent manner	2.5–3.0	not increased	increased mineralisation	1-methyl-2-pyrrolidone (NMP)>1-ethyl-2-pyrrolidone (NEP)>2-pyrrolidone (PB)>1-cyclohexyl-2-pyrrolidone (CP)
O=C1CCCN1 [PB, 2-pyrrolidone]					1-methyl-2-pyrrolidone (NMP)>1-ethyl-2-pyrrolidone (NEP)>2-pyrrolidone (PB)>1-cyclohexyl-2-pyrrolidone (CP)
